This passage reports TGI results from PubChem BioAssay (NCI).

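Protocol summary: plate cells (96-well), add compound at 5 concentrations, incubate 48 h, interpolate endpoints linearly. TGI: total growth inhibition.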 *1 amine or outer side, *2 acyl side, *3 side chain or, on linkers, in order; H or OH if unused. Where a SMILES comes first, the peptide text is derived from it. Bridges are numbered along the chain shown (N, C = ends). [ ]: non-standard residue; d: D form. The star is where a group is joined. X34 = O=C(C(CCCCNO[*:3])N[*:1])[*:2]; Fmoc = O=C(OCC1c2ccccc2-c2ccccc21)*

Test systems include CCRF-CEM leukemia; EKVX NSCLC; HCT-116 colon; HCT-15 colon; MDA-MB-231 breast; MOLT-4 leukemia; NCI-H226 lung; NCI/ADR-RES ovarian; RPMI-8226 leukemia; SF-539 CNS; SK-MEL-2 melanoma; SK-MEL-28 melanoma; SNB-75 CNS; SR leukemia; T-47D breast; U251 CNS; UO-31 renal.
Holding throughout (experiment): inhibition of tumour cell growth, NCI panel, 48 h

On to `NC(=O)CNC(=O)C1CCCN1C(=O)C1CCCCNOC(=O)CCC(NC(=O)OCC2c3ccccc3-c3ccccc32)C(=O)NC(Cc2c[nH]c3ccccc23)C(=O)N1` (configuration not stated) (Fmoc-EW[X34]PG-NH2; ester 1-3; configuration not given here), for which the TGI with CCRF-CEM leukemia, in the assay on EKVX NSCLC, with HCT-116 colon, in the assay with HCT-15 colon, in the assay with MDA-MB-231 breast and in the assay on MOLT-4 leukemia was greater than 100 µM throughout. In addition, the TGI in the assay with NCI-H226 lung, with NCI/ADR-RES ovarian, in the assay with RPMI-8226 leukemia, in the assay on SF-539 CNS, with SK-MEL-2 melanoma and in the assay on SK-MEL-28 melanoma was greater than 100 µM each time. Further, the TGI in the assay on SNB-75 CNS, in the assay with SR leukemia, in the assay with T-47D breast, in the assay on U251 CNS and in the assay on UO-31 renal was greater than 100 µM each time.

`COc1ccc(NC(=O)C(C)Oc2ccc(OCC3CCCCC3)cc2)cc1` (configuration not stated): the TGI in the assay with CCRF-CEM leukemia, in the assay on HCT-116 colon, in the assay on HCT-15 colon, in the assay with MOLT-4 leukemia, with NCI-H226 lung and in the assay on SF-539 CNS was greater than 100 µM each time. Further, the TGI in the assay with SK-MEL-2 melanoma, with SK-MEL-28 melanoma, with SNB-75 CNS, with U251 CNS and in the assay on UO-31 renal was greater than 100 µM each time.

For the compound `O=C1c2ccccc2C(=O)C1C(c1ccc(F)cc1)C1C(=O)c2ccccc2C1=O`, the TGI in the assay on CCRF-CEM leukemia, with EKVX NSCLC, in the assay with HCT-116 colon, with HCT-15 colon, with MOLT-4 leukemia and with NCI-H226 lung was greater than 100 µM in each case. Moreover, the TGI with RPMI-8226 leukemia, in the assay with SF-539 CNS, in the assay with SK-MEL-2 melanoma, with SK-MEL-28 melanoma, in the assay on SNB-75 CNS and in the assay on SR leukemia was greater than 100 µM throughout. Besides, the TGI with U251 CNS and with UO-31 renal was greater than 100 µM in each case.

With `C=C(C(=C)N1N=NC2C3CCC(C3)C21)N1N=NC2C3CCC(C3)C21` (configuration not stated), the TGI in the assay on CCRF-CEM leukemia, in the assay with HCT-116 colon, in the assay with MOLT-4 leukemia, with SF-539 CNS, with SK-MEL-28 melanoma and in the assay on SNB-75 CNS was greater than 100 µM in each case. Further, the TGI in the assay with SR leukemia, with U251 CNS and with UO-31 renal was greater than 100 µM throughout.

Consider `CC(C)Oc1cccc(N2C(=NCCc3c[nH]c4ccccc34)Nc3ccncc3S2(=O)=O)c1`, for which the TGI with CCRF-CEM leukemia, with EKVX NSCLC, with HCT-116 colon, with HCT-15 colon, in the assay on MOLT-4 leukemia and in the assay with NCI-H226 lung was greater than 100 µM in each case. The TGI in the assay with NCI/ADR-RES ovarian, in the assay with RPMI-8226 leukemia, in the assay with SF-539 CNS, in the assay with SK-MEL-2 melanoma, with SK-MEL-28 melanoma and in the assay on SNB-75 CNS was greater than 100 µM throughout. Also, the TGI with SR leukemia, in the assay with T-47D breast, with U251 CNS and in the assay on UO-31 renal was greater than 100 µM throughout.

On to `C=CCN1/C(=C2\SC(=S)N(c3ccc(C)cc3)C2=O)Sc2c1nc[nH]c2=O`, for which the TGI in the assay on CCRF-CEM leukemia, in the assay with EKVX NSCLC, with HCT-116 colon, with HCT-15 colon, in the assay on MOLT-4 leukemia and in the assay with NCI-H226 lung was greater than 100 µM throughout. For the same compound, the TGI in the assay on RPMI-8226 leukemia, with SF-539 CNS, in the assay with SK-MEL-2 melanoma, in the assay with SK-MEL-28 melanoma, with U251 CNS and in the assay on UO-31 renal was greater than 100 µM each time.

With `COC(=O)C(Br)C1CCc2ccccc21` (configuration not stated), the TGI in the assay with CCRF-CEM leukemia, with HCT-116 colon, in the assay with HCT-15 colon, in the assay on MOLT-4 leukemia, with NCI-H226 lung and in the assay on RPMI-8226 leukemia was greater than 100 µM each time. The TGI with SK-MEL-28 melanoma, with SR leukemia, in the assay with U251 CNS and in the assay on UO-31 renal was greater than 100 µM throughout.

With `COc1ccc(/C(=C/n2ccnc2)C(O)c2ccc(OC)c(OC)c2)cc1OC` (configuration not stated), the TGI with CCRF-CEM leukemia, with HCT-15 colon, in the assay on MOLT-4 leukemia, with NCI-H226 lung, in the assay with RPMI-8226 leukemia and in the assay with SF-539 CNS was greater than 100 µM each time. Also, the TGI with SK-MEL-2 melanoma, with SK-MEL-28 melanoma, in the assay on SNB-75 CNS, in the assay on SR leukemia, in the assay with U251 CNS and with UO-31 renal was greater than 100 µM each time.

For `CCN(CC)Cc1ccc(C(=S)Nc2ccc(C)cc2)s1`, the TGI was 30.8 µM in the assay on CCRF-CEM leukemia; 35.2 µM with EKVX NSCLC; 28.7 µM in the assay on HCT-116 colon; 32.3 µM with HCT-15 colon; 41.6 µM in the assay on MOLT-4 leukemia; 51.9 µM in the assay on NCI/ADR-RES ovarian. The TGI in the assay with RPMI-8226 leukemia was determined as 46.8 µM; with SF-539 CNS it was 37.7 µM; with SK-MEL-2 melanoma, 30.2 µM; with SK-MEL-28 melanoma it was 30.5 µM; with SR leukemia it was 37.6 µM; in the assay with T-47D breast, 37.4 µM. The TGI with U251 CNS is 30 µM; in the assay with UO-31 renal, 28.9 µM.

Take `C/C=C1\CN2CCc3c([nH]c4ccccc34)C2C=C1CCO` (configuration not stated): the TGI in the assay with CCRF-CEM leukemia, in the assay with EKVX NSCLC, in the assay on HCT-116 colon, in the assay on HCT-15 colon, in the assay on MOLT-4 leukemia and in the assay with NCI-H226 lung was greater than 340 µM throughout. In addition, the TGI with RPMI-8226 leukemia, in the assay with SF-539 CNS, with SK-MEL-2 melanoma, in the assay on SK-MEL-28 melanoma, in the assay with SR leukemia and with U251 CNS was greater than 340 µM in each case.
